Assay results: patent publication US10023836B2, “Medium for yeasts” (YAMAGUCHI UNIVERSITY, priority 2012, dated 2018)

What was measured:
RAK3599 strain [1] = assay: Investigation with AID and aY-AID culture medium (FIGS. 29 to 39); type: cell-based, Saccharomyces cerevisiae; settings: for effect on proliferation when added at high concentrations: up to 1% or up to 0.2500%; for preferred concentration / content: AID or aY-AID culture medium
Protocol: As shown in the following, an investigation was conducted into concentrations of each amino acid and a substitution potential of pantothenic acid for the amino acid in the AID culture medium. A suitable YPD culture medium was used as a control.
Next, the amino acids asparagine, isoleucine, phenylalanine, and valine were each adjusted to a culture medium additive concentration of […], 0.0312%, 0.0625%, 0.1250%, and 0.2500%, and OD600 was measured after 24 hours.
Isoleucine concentration in the aY-AID culture medium was adjusted to 0, 0.01 mg/mL, 0.1 mg/mL, 0.5 mg/mL, and 1 mg/mL, respectively, and proliferation of the RAK3599 strain was investigated.
Phenylalanine concentration in the aY-AID culture medium was adjusted to 0, 0.01, 0.1, 0.5, and 1 mg/mL, respectively, and proliferation of the RAK3599 strain was investigated.
Valine concentration in the aY-AID culture medium was adjusted to 0, 0.01, 0.1, 0.5, and 1 mg/mL, respectively, and proliferation of the RAK3599 strain was investigated.
Serine concentration in the AID culture medium was adjusted to 0, 0.01 mg/mL, 0.1 mg/mL, 0.5 mg/mL, and 1 mg/mL, respectively, and proliferation of the RAK3599 strain was investigated.
Threonine concentration in the AID culture medium was adjusted to 0, 0.01, 0.1, 0.5, and 1 mg/mL, respectively, and proliferation of the RAK3599 strain was investigated.
Asparagine concentration in the AID culture medium was adjusted to 0, 0.01, 0.1, 0.5, and 1 mg/mL, respectively, and proliferation of the RAK3599 strain was investigated.
An investigation was conducted into vitamins contained in the AID culture medium. […]

[2] = system: Saccharomyces cerevisiae RAK3599 strain; assay: SynAA culture medium: elimination of single components and inorganic ion concentration; type: cell-based; settings: for OD600 for 1/100 solutions after 42 hours: SynAA culture medium; for essentiality for increasing proliferation: one component of the vitamin mix eliminated from SynAA culture medium
Protocol: (§1) In a case where no special provisions are made, a procedure for a cultivation experiment using the culture medium to be investigated for proliferation was such that a yeast undergoing investigation was pre-cultured in a YPD liquid culture medium at 28° C. for 24 hours, after which the yeast was adjusted such that OD600=20. […] In addition, OD600 was measured every 15 minutes by a spectrophotometer (Cell density meter co8000, WPA). Hereafter, data is represented by graphs for a case using the automatic spectrophotometer; however, these graphs are primarily used to compare the slope of logarithmic growth phase proliferation curves for each culture medium, and because OD600 is measured without dilution, values where OD600=3 to 3.5 or more may be incorrect.
Culture mediums were prepared in which one component each of the components configuring the inorganic ion mix was eliminated from the SynAA culture medium, and OD600 was measured. […] Thereafter, an investigation specifically of inorganic ion concentration was conducted. […] An investigation was conducted using RAK3599 strain (hereafter, simply referred to as “RAK3599 strain”), which is a strain of Saccharomyces cerevisiae not having a particular nutritional requirement. Where no subsequent special provisions were made, proliferation was investigated by performing roller tube culture for an appropriate amount of time at 28° C. and measuring OD600.
MgSO4 concentration in the SynAA culture mediums was adjusted to 0%, 0.0001%, 0.001%, 0.01%, 0.1%, and 1%, respectively, and proliferation of the RAK3599 strain was investigated. […] Next, MgCl2 concentration in the SynAA culture mediums was adjusted to 0.001%, 0.01%, 0.1%, and 1%, respectively, and proliferation of the RAK3599 strain was investigated.
A culture medium was prepared in which one component each of the components configuring the vitamin mix was eliminated from the SynAA culture medium, with the SynAA culture medium as the control, and proliferation of the RAK3599 strain was investigated.

RAK3599 strain [3] = assay: Vitamin and FeCl3 concentration in AKD′ culture medium (FIGS. 22 to 28); type: cell-based, Saccharomyces cerevisiae; settings: AKD′ culture medium
Protocol: as §1
Pyridoxine concentration in the AKD′ culture medium was adjusted to 0, 0.004, 0.04, 0.4, 4, and 40 μg/mL, respectively, and proliferation of the RAK3599 strain was investigated.
Pantothenic acid concentration in the AKD′ culture medium was adjusted to 0, 0.004, 0.04, 0.4, 4, and 40 μg/mL, respectively, and proliferation of the RAK3599 strain was investigated.
Thiamine concentration in the AKD′ culture medium was adjusted to 0, 0.004, 0.04, 0.4, 4, and 40 μg/mL, respectively, and proliferation of the RAK3599 strain was investigated.
Nicotinic acid concentration in the AKD′ culture medium was adjusted to 0, 0.004, 0.04, 0.4, 4, and 40 μg/mL, respectively, and proliferation of the RAK3599 strain was investigated.
Myo-inositol concentration in the AKD′ culture medium was adjusted to 0, 0.02 μg/mL, 0.2 μg/mL, 2 μg/mL, 20 μg/mL, and 200 μg/mL, respectively, and proliferation of the RAK 3599 strain was investigated.
FeCl3 concentration in the AKD′ culture medium was adjusted to 0, 0.002, 0.02, 0.2, 2, and 20 μg/mL, respectively, and proliferation of the RAK3599 strain was investigated.

**Q.** Which effect on proliferation (RAK3599 strain [1]; vitamins contained in the AID culture medium (FIG. 38)) does the source give for `Nc1ccc(C(=O)O)cc1` [para-aminobenzoic acid] here?
**A.** Its effect on proliferation is “no effect to particularly increase proliferation”.

**Q.** Which proliferation ([2]; 0.1% added to SynAA culture medium instead of KH2PO4, after 20 hours) does the source give for `O=P([O-])(O)O.[Na+]` [NaH2PO4] here?
**A.** Its proliferation is “proliferation had not occurred”.

**Q.** With `N[C@@H](CO)C(=O)O` [Serine, L-Serine] as the compound, how does the “content at which proliferation particularly increased” value (RAK3599 strain [1]; AID culture medium) read?
**A.** The value was “around 0.5 mg/mL”.

**Q.** And the “effect on proliferation when added at high concentrations” value (from here on “effect on proliferation when added”) (RAK3599 strain [1]; AID culture medium)?
**A.** The value was “a positive influence was imparted to proliferation”.

**Q.** And the “preferred concentration / content” value (RAK3599 strain [1])?
**A.** The value was “around 0.5 g/L”.

**Q.** `[Cl][Fe]([Cl])[Cl]` [FeCl3, Anhydrous ferric (III) chloride] was tested. Which preferred concentration (RAK3599 strain [3]) did it give?
**A.** The preferred concentration was “around 4000 μg/L”.

**Q.** And the “OD600 after 24 hours” value (RAK3599 strain [3]; FeCl3 0 μg/mL)?
**A.** Its value is 10.

**Q.** What about the “OD600 after 24 hours” value (RAK3599 strain [3]; FeCl3 0.002 μg/mL) of the same compound?
**A.** Its value is 9.

**Q.** And the “OD600 after 24 hours” value (RAK3599 strain [3]; FeCl3 0.02 μg/mL)?
**A.** Its value is 11.

**Q.** What about the “OD600 after 24 hours” value (RAK3599 strain [3]; FeCl3 0.2 μg/mL) of the same compound?
**A.** The value was 10.

**Q.** What about the “OD600 after 24 hours” value (RAK3599 strain [3]; FeCl3 2 μg/mL) of the same compound?
**A.** The value was 13.

**Q.** And the “OD600 after 24 hours” value (RAK3599 strain [3]; FeCl3 20 μg/mL)?
**A.** The value was 14.

**Q.** With `O.O.O.O.O.O.O.O=S(=O)([O-])[O-].[Mg+2]` [MgSO4, magnesium sulfate-heptahydrate] as the compound, how does the “OD600 for 1/100 solutions after 42 hours” value ([2]; concentration of the substance adjusted to 0%) read?
**A.** Its value is 0.02.

**Q.** And the “OD600 for 1/100 solutions after 42 hours” value ([2]; concentration of the substance adjusted to 0.0001%)?
**A.** Its value is 0.04.

**Q.** And the “OD600 for 1/100 solutions after 42 hours” value ([2]; concentration of the substance adjusted to 0.001%)?
**A.** Its value is 0.09.

**Q.** And the “OD600 for 1/100 solutions after 42 hours” value ([2]; concentration of the substance adjusted to 0.01%)?
**A.** The value was 0.12.

**Q.** And the “OD600 for 1/100 solutions after 42 hours” value ([2]; concentration of the substance adjusted to 0.1%)?
**A.** The value was 0.13.

**Q.** What about the “OD600 for 1/100 solutions after 42 hours” value ([2]; concentration of the substance adjusted to 1%) of the same compound?
**A.** Its value is 0.13.

**Q.** What about the “proliferation when the component is not added” value ([2]; one component of the inorganic ion mix eliminated from SynAA culture medium) of the same compound?
**A.** Its value is “extremely low proliferation”.

**Q.** `Nc1nc2ncc(CNc3ccc(C(=O)N[C@@H](CCC(=O)O)C(=O)O)cc3)nc2c(=O)[nH]1` [folic acid] was tested. Which “essentiality for increasing proliferation” value [2] did it give?
**A.** Its value is “not be essential components”.

**Q.** Which “effect on proliferation when added” value (RAK3599 strain [1]; AID culture medium) does the source give for `N[C@@H](Cc1ccccc1)C(=O)O` [Phenylalanine, L-Phenylalanine] here?
**A.** The value was “a positive influence was imparted to proliferation”.

**Q.** And the “preferred concentration / content” value (RAK3599 strain [1])?
**A.** The value was “around 1 g/L”.

**Q.** And the “OD600 after 24 hours” value (RAK3599 strain [1]; aY-AID culture medium, concentration of the substance 0)?
**A.** The value was 17.

**Q.** And the “OD600 after 24 hours” value (RAK3599 strain [1]; aY-AID culture medium, concentration of the substance 0.01 mg/mL)?
**A.** Its value is 17.

**Q.** And the “OD600 after 24 hours” value (RAK3599 strain [1]; aY-AID culture medium, concentration of the substance 0.1 mg/mL)?
**A.** Its value is 19.

**Q.** What about the “OD600 after 24 hours” value (RAK3599 strain [1]; aY-AID culture medium, concentration of the substance 0.5 mg/mL) of the same compound?
**A.** Its value is 19.

**Q.** What about the “OD600 after 24 hours” value (RAK3599 strain [1]; aY-AID culture medium, concentration of the substance 1 mg/mL) of the same compound?
**A.** Its value is 19.

**Q.** `[Cl-].[K+]` [KCl, potassium chloride] was tested. Which proliferation ([2]; 0.1% added after 20 hours to SynAA culture medium with NaH2PO4 instead of KH2PO4) did it give?
**A.** Its proliferation is “proliferation began”.

**Q.** How did the “essentiality for increasing proliferation” value [2] turn out when `Cc1cc2nc3c(=O)[nH]c(=O)nc-3n(C[C@H](O)[C@H](O)[C@H](O)CO)c2cc1C` [riboflavin] was run?
**A.** Its value is “not be essential components”.

**Q.** How did the “effect on proliferation when added” value (RAK3599 strain [1]; AID culture medium) turn out when `C[C@H](N)C(=O)O` [Alanine, L-Alanine] was run?
**A.** The value was “a positive influence was imparted to proliferation”.

**Q.** And the “content at which the slope of the proliferation curve is greatest” value (RAK3599 strain [1]; aY-AID culture medium)?
**A.** Its value is “around 1 mg/mL”.

**Q.** What about the “OD600 after 24 hours” value (RAK3599 strain [1]; aY-AID culture medium, alanine 0 mg/mL) of the same compound?
**A.** The value was 17.

**Q.** What about the “OD600 after 24 hours” value (RAK3599 strain [1]; aY-AID culture medium, alanine 0.1 mg/mL) of the same compound?
**A.** The value was 18.

**Q.** What about the “OD600 after 24 hours” value (RAK3599 strain [1]; aY-AID culture medium, alanine 1 mg/mL) of the same compound?
**A.** The value was 18.

**Q.** And the “OD600 after 24 hours” value (RAK3599 strain [1]; aY-AID culture medium, alanine 5 mg/mL)?
**A.** The value was 17.

**Q.** And the “OD600 after 24 hours” value (RAK3599 strain [1]; aY-AID culture medium, alanine 10 mg/mL)?
**A.** The value was 18.
